Data set [1] concerns pulmonary fibrosis induced by bleomycin. In words: Example 2B bleomycin-induced pulmonary fibrosis: hydroxyproline. The class given is in vivo, C57BL/6 mice. The conditions noted are these: treatment begun on the day of bleomycin insult. On the procedure:
Experimental conditions used in this study are similar to the ones described in Example 2A. […] Mice were treated with bleomycin (BLM) on day 0 and controls received saline (SAL).

Data set [2] deals with pancreatic adenocarcinoma. In words: KPC mouse model of pancreatic adenocarcinoma / pancreatic animal models. The class given is in vivo.
Data set [3] is described as follows: Bleomycin-induced pulmonary fibrosis model in C57BL/6 mice (study INF-01): body weight and survival. The class given is in vivo. As to the method: Thirty-two C57/B6 mice were prospectively randomized into four equally sized groups of eight animals each. An additional four mice served as naïve controls. Pulmonary fibrosis was induced with a single dose of bleomycin (4 U/kg) given intra-nasally on Day 0. Animals' activity and weight were evaluated daily. IPI 926 or vehicle was given every other day from 10 days prior to bleomycin until sacrifice on Day 30, or IPI926 was given beginning on either Day 0 or Day 14 on alternate days until the end of the study. At the end of the study on Day 30, all mice were euthanized and bronchiolar lavage performed to enable an evaluation of the inflammatory infiltrate in the lungs and collect the fluid for possible cytokine evaluation. One lung from each animal was collected for histology, while the other was snap frozen and retained for possible additional analyses.
Bleomycin, a glycopeptides anti-cancer agent originally isolated from Streptomyces verticillus is currently approved for use against squamous cell carcinoma, testicular cancer and Hodgkin's disease. Pulmonary fibrosis is a significant toxicity associated with the use of bleomycin, occurring in a significant percentage of patients undergoing bleomycin therapy. In C57/B6 mice, pulmonary inflammation and subsequent fibrosis is reproducible following bleomycin treatment, and the severity of pulmonary fibrosis is dose-dependent with higher doses being used to evaluate short term inflammatory effects, while lower doses are used to study the longer term impact of pulmonary fibrosis. In this model, mice are given 4 U/kg of bleomycin intranasally and pulmonary fibrosis is evaluated histologically 30 days after the administration of the bleomycin.
Oral administration by gavage QOD for 30 days 40 mg/kg Administered volume varies by weight
Thirty-six (36) female C57B1/6 mice (Charles River Laboratories), aged 5 to 6 weeks, with a mean body weight of 19.7 g at study commencement, were used. Animals were individually numbered using an ear punch and housed in groups of eight animals per cage. Animals were acclimatized for 3 days prior to study commencement. During acclimatization, the animals were observed daily in order to reject animals that presented in poor condition.
Pulmonary fibrosis was induced with a single intra-nasal administration of bleomycin at 4 U/kg in 25 μL of saline. Animals were anesthetized by breathing isoflurane in a closed chamber (2-3% isoflurane 200-300 mls oxygen) to effect. When non-responsive to toe pinch, each animal was held in one hand in an upright position and the bleomycin placed in nares and the droplet watched until inhaled. […]
Animals were weighed and evaluated for respiratory distress daily. […]
All animals were weighed and evaluated for respiratory distress daily throughout this study. […]

Data set [4] relates to Sonic Hedgehog (SHh) and Gli-1. In words: Immunohistochemistry of lung samples from the bleomycin lung fibrosis study for SHh and Gli-1. The class given is in vivo, C57BL/6 mice. On the procedure:
I. IHC protocol to detect Gli1 on murine and human tissues: Rabbit anti-mouse Gli1 (Novus Biologicals NBP1-03294), Whole Rabit IgG2 Positive control: RMS, BCC
• 1. Dilute the Gli1, 1:200, in DaVinci Green Diluent. Add ratIgG2a, at same dilution, to the negative controls. Add a volume of 300 μl to each slide. • 2. Incubate for 1.5 hours at room temperature.
Rabbit anti-human SHh (Abcam# ab53281). Isotype control: Whole Rabbit IgG Positive control: Pancreatic xenograft Secondary: Rabbit-on-Rodent Polymer (Biocare Medical RMR622) for xenografts or Mach 2 (Biocare Medical RHRP520) for human tissue Wash buffer: PBS+0.5% Tween Citrate Retrieval buffer DaVinci Green Primary Ab diluent (Biocrae Medical PD900) DAB Enhancer (Zymed Cat. No. 00-2021)
• 1. Dilute the SHH, 1:2000 (optimized on the DAKO autostainer), in DaVinci Green Diluent. Add RabbitIgG, at same dilution, to the negative controls. Add a volume of 300 μl to each slide. • 2. Incubate for 90 minutes at room temperature.

The subject of data set [5] is experimental liver metastasis. In words: Mouse model of experimental liver metastasis. It counts as in vivo. The note with it: prophylactic administration.
Where [6] appears, read: Group 3: Qod, Day 0 to Day 30, individual animals.

For the molecule `CC1=C2C[C@H]3[C@@H](CC[C@@H]4C[C@H](NS(C)(=O)=O)CC[C@@]43C)[C@@H]2CC[C@@]2(C1)O[C@@H]1C[C@H](C)CN[C@H]1[C@H]2C` [IPI-926], in data set [1], the “fibrosis as ug of hydroxproline per g of animal body weight” value was “reduces the fibrosis caused by bleomycin”. Further, in data set [2] (KPC mouse model), the desmoplastic infiltration result is listed as “inhibition of desmoplastic infiltration”, the metastasis result was “decreased metastasis” and the survival entry was “increased survival”. Besides, the desmoplastic component result in data set [2] (pancreatic animal models) is recorded as “dramatic effect on the desmoplastic component”. Moreover, in data set [3] (setting [6]), the “Daily Animal Weights, Day 14” value is 21.09 and the “Daily Animal Weights, Day 27” value came to 21.09. The “animals that died or were euthanized” value in data set [3] (group treated from Day −10 to Day 30) was “sac'd”. Further, the “weight gain relative to vehicle controls” value in data set [3] (mouse, in vivo) is reported as “reductions in weight gain relative to vehicle controls”. In addition, the SHh immunoreactivity result in data set [4] (d=−10, d=0, d=14) was “only IPI-926 administered at d=−10 appeared to have an effect on this signal”. The “Gli-1 immunoreactivity in comparison to vehicle treatment” value in data set [4] (d=−10, d=0 and d=14) is recorded as “appears to decrease the Gli-1 immunoreactivity”. For the same molecule, in data set [5], the “metastatic spread and survival” value was “dramatic effects on metastatic spread and survival”.

These data come from patent publication US20110183948A1, “TREATMENT OF FIBROTIC CONDITIONS USING HEDGEHOG INHIBITORS” (INFINITY PHARMACEUTICALS, INC., priority 2010, published 2011).
